# Data reported in patent US7744897B2, “Human immunodeficiency virus gp41 mimetibody polypeptides” (priority 2003, dated 2010).
# Like-named read-outs stand apart in the source and are kept apart here.
# Assays:
# HIV = details: clinical trials; cited from earlier work
# [1] = cited from earlier work
# [2] = human serum, spiked at 1 mg/ml, 72 hours at 37° C., HPLC
# Method: The stability of the T-1249 mimetibody in vitro was determined using HPLC. The T-1249 mimetibody (SEQ ID NO: 1) was spiked into human serum at 1 mg/ml. Using a C18 chromatography matrix, a peak corresponding to the T-1249 mimetibody was resolved from other serum proteins. […] Samples were taken at 0, 5, 25, and 72 hours after the addition of the T-1249 mimetibody into human serum. A background peak was used as a reference for each sample.
# [3] = test system: other isolates of HIV including an enfuvirtide-resistant strain; details: similar experiments
compound,measurement,setting,value
enfuvirtide,Reduction of viral levels in infected patients,HIV,1-2 logs
same,plasma half-life,"[1]; human, plasma",about 1.8 hours
CC[C@H](C)[C@H](NC(=O)[C@H](CCC(N)=O)NC(=O)[C@H](C)NC(=O)[C@H](CCC(N)=O)NC(=O)[C@H](CCC(=O)O)NC(=O)[C@H](CC(C)C)NC(=O)[C@H](CC(C)C)NC(=O)[C@H](C)NC(=O)[C@@H](NC(=O)[C@@H](NC(=O)[C@H](CCCCN)NC(=O)[C@H](CCC(N)=O)NC(=O)[C@H](CCC(=O)O)NC(=O)[C@H](Cc1c[nH]c2ccccc12)NC(=O)[C@H](CCC(=O)O)NC(=O)[C@H](CCC(N)=O)NC(=O)[C@H](Cc1c[nH]c2ccccc12)NC(C)=O)[C@@H](C)CC)[C@@H](C)O)C(=O)N[C@@H](CCC(N)=O)C(=O)N[C@@H](CCC(N)=O)C(=O)N[C@@H](CCC(=O)O)C(=O)N[C@@H](CCCCN)C(=O)N[C@@H](CC(N)=O)C(=O)N[C@@H](CCC(=O)O)C(=O)N[C@@H](Cc1ccc(O)cc1)C(=O)N[C@@H](CCC(=O)O)C(=O)N[C@@H](CC(C)C)C(=O)N[C@@H](CCC(N)=O)C(=O)N[C@@H](CCCCN)C(=O)N[C@@H](CC(C)C)C(=O)N[C@@H](CC(=O)O)C(=O)N[C@@H](CCCCN)C(=O)N[C@@H](Cc1c[nH]c2ccccc12)C(=O)N[C@@H](C)C(=O)N[C@@H](CO)C(=O)N[C@@H](CC(C)C)C(=O)N[C@@H](Cc1c[nH]c2ccccc12)C(=O)N[C@@H](CCC(=O)O)C(=O)N[C@@H](Cc1c[nH]c2ccccc12)C(=O)N[C@@H](Cc1ccccc1)C(N)=O [T-1249 peptide],plasma half-life,[1]; in vivo,9 to 14 h
"T-1249 mimetibody: Formula (II) polypeptide: V1 QIQ, single copy of T-1249, IgG J region, IgG1 hinge, CH2 and CH3; SEQ ID NO: 1",T-1249 mimetibody remained intact,[2],more than 93%
same,Activity against other isolates of HIV including an enfuvirtide-resistant strain,[3],active
